Assay: log P (HPLC/MS data of the preparation examples)
Settings: for log p: linear gradient 10% to 95% acetonitrile
[1] = method [b]: LC-MS at pH 2.7, 0.1% formic acid in water / acetonitrile
[2] = LC-MS, method [b]: pH 2.7 with 0.1% formic acid in water and acetonitrile
[3] = HPLC (LC-MS) method [b]: pH 2.7, 0.1% formic acid in water and acetonitrile, EEC directive 79/831 Annex V.A8

Row | Compound | log p [1] | log p [2] | other results
1 | CCCCCOC(=O)Nc1cccc(CON=C(c2ccccc2)c2cnc(C)n2C)n1 [Example 211] | 3.13^[b] |  | 
2 | CCCCCOC(=O)N(C)c1cccc(CON=C(c2ccccc2)c2ncnn2C)n1 [Example 113] |  | 4.39^[b] | 
3 | COCCC(=O)Nc1cccc(CON=C(c2ccccc2)c2nccn2C)n1 [Example 270] | 4.53^[b] |  | 
4 | Cn1nc(C(=NOCc2cccc(NC(=O)CC(F)(F)F)n2)c2ccccc2)n(C)c1=O [Example 151] | 2.66^[b] |  | 
5 | CC(C)COC(=O)Nc1cccc(CON=C(c2ccccc2)c2nnc(C(F)(F)F)n2C)n1 [Example 203] | 4.06^[b] |  | 
6 | Cc1cccc(C(=NOCc2cccc(N3C(=O)c4ccccc4C3=O)n2)c2ncnn2C)c1 [Example 5] |  | 3.04^[b] | 
7 | Cn1cnnc1C(=NOCc1cccc(Br)n1)c1ccccc1 [Example 228, N-[(6-bromopyridin-2-yl)methoxy]-1-(4-methyl-4H-1,2,4-triazol-3-yl)-1-phenylmethanimine] |  |  | chromatographic logP (reversed phase HPLC column, pH 2.7): 2.28
8 | CCOC(=O)Nc1cccc(CON=C(c2ccccc2)c2ncnn2C)n1 [Example 93] |  | 2.71^[b] | 
9 | CC(C)CCC(=O)Nc1cccc(CON=C(c2cccc(F)c2)c2nccn2C)n1 [Example 348] |  | 2.42^[b] | 
10 | CCCCCC(=O)Nc1cccc(CON=C(c2ccccc2C)c2ncnn2C)n1 [Example 24] |  | 3.46^[b] | 
11 | Cn1ncnc1C(=NOCc1csc(NC(=O)C(C)(C)C)n1)c1cccs1 [Example 401] |  | 2.8^[b] | 
12 | CCCCSC(=O)Nc1cccc(CON=C(c2cccc(F)c2)c2nccn2C)n1 [Example 342] |  | 2.88^[b] | 
13 | Cn1ncnc1C(=NOCc1cccc(NC(=O)CCc2cccc(Cl)c2)n1)c1ccccc1 [Example 238] | 3.73^[b] |  | 
14 | COCCOC(=O)Nc1cccc(CON=C(c2ccccc2)c2nccn2C)n1 [Example 339] |  | 1.34^[b] | 
15 | CC(C)CC(=O)Nc1cccc(CON=C(c2ccccc2)c2nccn2C)n1 [Example 36] |  | 1.89^[b] | 
16 | Cn1cnnc1C(=NOCc1cccc(C#CCC2CCCCC2)n1)c1ccccc1 [Example 231] | 4.14^[b] |  | 
17 | Cc1ccc(C(=NOCc2cccc(NC(=O)C3CC3)n2)c2ncnn2C)cc1 [Example 17] |  | 2.73^[b] | 
18 | CCCCC(=O)Nc1cccc(CON=C(c2ccsc2)c2cncn2C)n1 [Example 440] |  |  | log p [3]: 1.75^[b]
19 | CCCCCOC(=O)Nc1cccc(CON=C(c2ccccc2)c2nn(C)c(=O)n2C)n1 [Example 146] | 3.8^[b] |  | 

Row | Compound | log p [1] | log p [2] | other results
20 | CCCOC(=O)Nc1cccc(CON=C(c2ccccc2)c2nc(C)cnc2C)n1 [Example 374] |  | 3.81^[b] | 
21 | Cn1ncnc1C(=NOCc1cccc(NC(=O)C2CCCCC2)n1)c1ccccc1 [Example 248] | 3.39^[b] |  | 
22 | CCCCCC(=O)Nc1cccc(CON=C(c2ccc(OC)c(Br)c2)c2ncc(C(F)(F)F)cc2Cl)n1 [Example 368] |  | 5.44^[b] | 
23 | CC(C)CC(=O)Nc1cccc(CON=C(c2ccccc2)c2nn(C)c(=O)n2C)n1 [Example 148] | 2.82^[b] |  | 
24 | CC(C(=O)Nc1cccc(CON=C(c2ccccc2)c2ncnn2C)n1)c1ccccc1 (stereo not drawn) [Example 240] | 3.42^[b] |  | 
25 | COc1ccccc1CC(=O)Nc1cccc(CON=C(c2ccccc2)c2nccn2C)n1 [Example 268] | 2.47^[b] |  | 
26 | Cn1cncc1C(=NOCc1csc(NC(=O)C(C)(C)C)n1)c1ccccc1 [Example 117] |  | 1.84^[b] | 
27 | CCCCS(=O)(=O)N(c1cccc(CON=C(c2ccc(C)cc2)c2ncnn2C)n1)S(=O)(=O)CCCC [Example 78] |  | 4.51^[b] | 
28 | COc1ccc(C(=NOCc2cccc(NC(=O)C(F)(F)F)n2)c2ncc(C(F)(F)F)cc2Cl)cc1Br [Example 361] |  | 4.97^[b] | 
29 | CCCCCCOC(=O)Nc1cccc(CON=C(c2ccccc2)c2nc(C)cnc2C)n1 [Example 375] |  | 5.2^[b] | 
30 | CCCCCOC(=O)Nc1ccnc(CON=C(c2ccccc2)c2cncn2C)n1 [Example 115] |  | 2.66^[b] | 
31 | Cc1ncc(C(=O)c2ccccc2)n1C [(1,2-dimethyl-1H-imidazol-5-yl)(phenyl)methanone] |  |  | chromatographic logP (HCOOH (formic acid)): 0.56
32 | Cn1nc(C(F)(F)F)nc1C(=NOCc1cccc(N)n1)c1ccccc1 [Example 181] | 1.97^[b] |  | 
33 | CCCCCCC(=O)Nc1nc(CON=C(c2cccs2)c2cncn2C)cs1 [Example 452] |  |  | log p [3]: 2.14^[b]
34 | CC(=O)Nc1ccnc(CON=C(c2ccccc2)c2nccn2C)n1 [Example 62] |  | 1.13^[b] | 
35 | COCCOCC(=O)Nc1cccc(CON=C(c2ccc(OC)c(Br)c2)c2ncc(C(F)(F)F)cc2Cl)n1 [Example 362] |  | 4.51^[b] | 
36 | Cn1ncnc1C(=NOCc1cccc(NC(=O)Cc2ccccc2Cl)n1)c1ccccc1 [Example 243] | 3.31^[b] |  | 
37 | 6-{[({(3-bromo-4-methoxyphenyl)[3-chloro-5-(trifluoromethyl)pyridin-2-yl]methylene}amino)oxy]methyl}pyridin-2-amine [Example 432] |  |  | log P(HCOOH) (HCOOH): 2.54; log p [3]: 1.99^[b]
38 | COc1cccc(CC(=O)Nc2cccc(CON=C(c3ccccc3)c3ncnn3C)n2)c1 [Example 247] | 3.06^[b] |  | 

Row | Compound | log p [1] | log p [2] | other results
39 | CCCCCCCCCC(=O)Nc1cccc(CON=C(c2ccsc2)c2cncn2C)n1 [Example 441] |  |  | log p [3]: 3.02^[b]
40 | COc1ccc(C(=NOCc2cccc(N3C(=O)c4ccccc4C3=O)n2)c2ncc(C(F)(F)F)cc2Cl)cc1Br [Example 356] |  | 4.78^[b] | 
41 | ON=C(c1ccsc1)c1snc(Cl)c1Cl [1-(3,4-dichloro-1,2-thiazol-5-yl)-N-hydroxy-1-(3-thienyl)methanimine] |  |  | chromatographic logP (HCOOH (formic acid)): 3.04
42 | Cn1nc(C(=NOCc2cccc(NC(=O)c3cccs3)n2)c2ccccc2)n(C)c1=O [Example 152] | 2.82^[b] |  | 
43 | CON(C)C(=O)c1ccsc1 [N-methoxy-N-methylthiophene-3-carboxamide] |  |  | chromatographic logP (HCOOH (formic acid)): 1.3
44 | Cn1ncnc1C(=NOCc1cccc(NC(=O)CCc2ccccc2)n1)c1cccs1 [Example 392] |  | 3.17^[b] | 
45 | CCCCCC(=O)Nc1nc(CON=C(c2cccs2)c2ncnn2C)cs1 [Example 399] |  | 3.23^[b] | 
46 | Cn1cncc1C(=NOCc1cccc(NC(=O)C(C)(C)C)n1)c1ccsc1 [Example 436] |  |  | log p [3]: 1.7^[b]
47 | CCCCCC(=O)Nc1ccnc(CON=C(c2ccc(C)cc2)c2ncnn2C)n1 [Example 38] |  | 3.42^[b] | 
48 | Cn1ccnc1C(=NOCc1cccc(NC(=O)Cc2ccccc2)n1)c1ccccc1 [Example 32] |  | 2^[b] | 
49 | CCCCCC(=O)Nc1cccc(CON=C(c2ccccc2)c2csc(C)n2)n1 (single isomer, unassigned) [Example 188] | 3.89^[b] |  | 
50 | CC(C)CC(=O)Nc1nc(CON=C(c2cccs2)c2cncn2C)cs1 [Example 450] |  |  | log p [3]: 1.66^[b]
51 | Cn1ncnc1C(=NOCc1csc(NC(=O)Cc2ccccc2)n1)c1cccs1 [Example 402] |  | 2.82^[b] | 
52 | Cc1ncc(C(=NOCc2cccc(N)n2)c2ccccc2)n1C [Example 209] | 0.56^[b] |  | 
53 | CCCCCOC(=O)Nc1nc(CON=C(c2ccc(OC)c(Br)c2)c2ncc(C(F)(F)F)cc2Cl)cs1 [Example 371] |  | 5.59^[b] | 
54 | Cn1ccnc1C(=NOCc1nccc(NC(=O)C(C)(C)C)n1)c1ccccc1 [Example 12] |  | 1.77^[b] | 
55 | Cn1ncnc1C(=NOCc1cccc(NC(=O)CCCc2ccccc2)n1)c1ccccc1 [Example 249] | 3.6^[b] |  | 
56 | CCCCCOC(=O)Nc1cccc(CON=C(c2ccccc2)c2snnc2C)n1 [Example 217] | 5.11^[b] |  | 

From US8981111B2 (priority 2008, dated 2015)
